Experiments:
Assay type in all cases: binding
[1] = Fluorescence titration of indicator with lead ions; settings: for Kd: Table 3 binding constant, read-out: Kd Pb^2+; for F = F(bind)/F0, Pb^2+: fluorescent response to binding, in brackets
Procedure: (§1) A dye stock (5.0×10^−4 M) solution of Compound 109 was prepared in DMSO. Lanthanide, Lead, cadmium and mercury ion solutions from 0-40 nM were prepared in disposable cuvettes by diluting a 100 mM metal ion stock solutions to a final volume of 2 mL with 100 mM MOPS (pH7). For the lanthanide titration, dye stock was diluted to give a final concentration of 50 nM. For the cadmium titration, dye stock was added to give a final concentration of 2.5×10^−7 M. For the mercury titrations, dye stock was added to give a final concentration of 2.5×10^−7 M. Samples were excited at 492 nm and fluorescence was recorded at 517 nm.

[2] = Fluorescence titration of indicator with cadmium ions in cuvettes; settings: for F = F(bind)/F0, Cd^2+: fluorescent response to binding, in brackets
Procedure: as §1

[3] = Fluorescence titration of indicator with zinc ions; settings: for Kd: Table 3 binding constant, read-out: Kd Zn^2+; for F = F(bind)/F0, Zn^2+: fluorescent response to binding, in brackets
[4] = Fluorescence titration of indicator with calcium ions; settings: for Kd: Table 3 binding constant, read-out: Kd Ca^2+; for F = F(bind)/F0, Ca^2+: fluorescent response to binding, in brackets
[5] = Fluorescence titration of indicator with mercury ions in cuvettes
Procedure: as §1

[6] = Fluorescence titration of indicator with lanthanide ions in cuvettes; settings: for F = F(bind)/F0, La^3+: fluorescent response to binding, in brackets
Procedure: as §1

[7] = Fluorescence titration of indicator with manganese ions; settings: for Kd: Table 3 binding constant, read-out: Kd Mn^2+; for F = F(bind)/F0, Mn^2+: fluorescent response to binding, in brackets
[8] = Table 3 binding constant, read-out: Kd Cd^2+
[9] = Table 3 binding constant, read-out: Kd La^3+

| Structure (SMILES) | Kd [1] [nM] | F = F(bind)/F0, Pb^2+ [1] | Kd ([2]; 100 mM MOPS pH7, dye 2.5×10^−7 M, excited 492 nm, recorded 517 nm, read-out: Kd cadmium (Cd(II))) [nM] | Kd [2, 8] [nM] | F = F(bind)/F0, Cd^2+ [2] | Kd [3] [nM] | F = F(bind)/F0, Zn^2+ [3] | Kd [4] [nM] | F = F(bind)/F0, Ca^2+ [4] | Kd ([5]; 100 mM MOPS pH7, dye 2.5×10^−7 M, excited 492 nm, recorded 517 nm, read-out: Kd mercury (Hg2+)) [nM] | Kd ([5]; Table 3 binding constant, read-out: Kd Hg^2+) [nM] | F = F(bind)/F0, Hg^2+ ([5]; fluorescent response to binding, in brackets) | Kd ([6]; 100 mM MOPS pH7, dye 50 nM, excited 492 nm, recorded 517 nm, read-out: Kd lanthanide (La(III))) [nM] | Kd [6, 9] [nM] | F = F(bind)/F0, La^3+ [6] | Kd [7] [nM] | F = F(bind)/F0, Mn^2+ [7] |
| --- | --- | --- | --- | --- | --- | --- | --- | --- | --- | --- | --- | --- | --- | --- | --- | --- | --- |
| O=C([O-])CN(CC(=O)[O-])c1ccccc1OCCOCCOc1cc(-c2c3cc(F)c(=O)cc-3oc3cc([O-])c(F)cc23)ccc1N(CC(=O)[O-])CC(=O)[O-].[K+].[K+].[K+].[K+].[K+] [Compound 109] | 38900 | 20 | 61 | 61 | 11 | 27100 | 8.8 | 21400 | 68 | 2160 | 2160 | 20 | 10.3 | 10 | 47 | – | – |
| CN(C)c1ccc2c(-c3ccc(N(CC(=O)[O-])CC(=O)O)c(OCCOCCOc4ccccc4N(CC(=O)O)CC(=O)O)c3)c3ccc(=[N+](C)C)cc-3oc2c1 [Compound 112] | 5440 | 29 | – | 395 | 39 | 35800 | 17 | 44900 | 161 | – | – | – | – | 359 | 36 | 80200 | 1.82 |
| O=C([O-])CN(CC(=O)O)c1ccc(C2=c3cc4c5c(c3Oc3c2cc2c6c3CCCN6CCC2)CCC[N+]=5CCC4)cc1OCCOCCOc1ccccc1N(CC(=O)O)CC(=O)O [Compound 115] | 189 | 33 | – | 331 | – | 28600 | 20 | 67800 | 114 | – | – | – | – | 352 | 32 | 136000 | 2.5 |
